In US6500816B1, “Remedies for photochemotherapy” (Nippon Kayaku Kabushiki Kaisha, priority 1998, dated 2002):

How the values were obtained:
[1] = Maximum absorption wavelength of the compounds; type: physicochemical
Excerpt: Some representative examples of the compounds utilizable as the photochemotherapeutic agent according to the present invention are shown below.

[2] = background art statement; cited from earlier work

Row | Molecule | Maximum absorption wavelength (λmax) [1] [nm] | maximum absorption wavelength [2] [nm]
1 | CCN(CC)c1ccc(C(=CC=CC(=C2C=CC(=[N+](CC)CC)C=C2)c2ccc(N(CC)CC)cc2)c2ccc(N(CC)CC)cc2)cc1 [Polymethine type 1] | 820 | 
2 | CC1CC(C=CC=C/C=C2\CC(C)Cc3c(-c4ccccc4)cc(-c4ccccc4)[o+]c32)=C2OC(c3ccccc3)=CC(c3ccccc3)=C2C1 (stereo not drawn) [Polymethine type 4] | 1045 | 
3 | dihematoporphyrin [Photofrin] |  | 363
